1 compound from patent US12338229B2, “Small molecule stimulators of steroid receptor coactivator-3 and methods of their use as cardioprotective and/or vascular regenerative agents” (BAYLOR COLLEGE OF MEDICINE, priority 2018, dated 2025) can be followed below.

The subject of one test is bone marrow granulocytes. Description: qPCR of bone marrow granulocytes post-MI. Type of test: in vivo, mice. The following applies: bone marrow granulocytes 24 hours post-MI. How it is done: RNA isolation and qPCR. Total RNA was isolated from cells using the Qiagen RNA isolation kit. cDNA was prepared with the VILO master mix reagent. qPCR analysis was carried out using the Taqman kit with primers for Tlr7, Lcn2 and 18s.
Granulocyte isolation. Bone marrow cells were isolated from the rear legs of mice treated with control or MCB-613 for 24 hours. Rear legs were removed and placed in ice-cold Hanks balanced salt solution (HBSS) (without Ca/Mg) plus 2% FBS. Both ends of the bone were cut and the bone marrow was flushed with ice cold HBSS with 2% FBS using a 26G needle. Clumps were broken up with an 18G needle and filtered through a 70 μm filter and centrifuged at 400 g for 10 min at 4° C. The pellet was suspended in RBC lysis buffer (BD Biosciences Pharmigen; San Diego, CA) and incubated at room temperature for two minutes. HBSS buffer (8 mL) was added and spun at 400 g for 10 mins at 4° C. Viable cells were counted by trypan blue exclusion and bone marrow granulocytes were isolated using a mouse Neutrophil Isolation Kit from Miltenyi Biotec (Bergisch Gladbach, Germany).
In general terms: Real-time PCR tracks product formation cycle by cycle.

For test [1], the system named is non-cardiomyocyte cells of hearts post-MI. Description: Single cell transcriptional profiling of non-cardiomyocytes post-MI. It counts as in vivo, mice. How it is done: Isolation of cardiac cells for single cell transcription profiling. Mice were placed under the surgical plane of anesthesia before cervical dislocation. The hearts were removed and cells were isolated by Langendorff retrograde perfusion of calcium-free pH 7.4 Tyrodes solution (130 mM NaCl, […], 0.5 mM MgCl, 0.33 mM NaH2PO4, 0.25 mm HEPES, 22 mM glucose) with collagenase, 1 mg/mL for 15 minutes. The hearts were then removed from the apparatus, and finely minced in the same Tyrodes buffer with 15 mg/mL bovine serum albumin (BSA) before trituration with a glass pipette. Cardiomyocytes were then pelleted by differential centrifugation, 300 RPM for 3 minutes. The supernatant containing the noncardiomyocyte population of cells was then filtered through a 70 micron filter and pelleted at 750 G, and resuspended in 1.1 mL 2% fetal bovine serum (FBS) in phosphate buffered saline (PBS). 0.1 mL was removed for the “no stain control” for fluorescence-activated cell sorting (FACS). The other 1 mL was incubated with 4 ug/mL Calcein Blue and 10 microM DyeCycle Ruby and incubated at 37° C. for 10 minutes. The cells were then spun down at 600G, and resuspended in 0.5 mL 2% FBS/PBS containing Sytox Green (30 nM). […] The cells were then pelleted and resuspended in 100 uL 0.4% FBS in PBS, counted, and then flowed through the 10×Genomics Chromium system for single cell transcriptomic profiling.
Isolation of cardiac cells. […] Then, 0.1 mL of the mixture was removed for the “no stain control” for fluorescence-activated cell sorting (FACS). […] The cells were then pelleted and resuspended in 100 μL 0.4% FBS in PBS, counted, and passed through the 10× Genomics Chromium system.
Single-cell RNA-sequencing. […] To identify cell clusters and differentially expressed genes, the Cell Ranger results were analyzed with Seurat suite version 3.0.0 implemented in R (version 3.4.3). Cells with <200 or >5,000 unique genes expressed or >25% of reads mapping to mitochondria were removed as quality control measure. […]

As for `CCC1C/C(=C\c2cccnc2)C(=O)/C(=C/c2cccnc2)C1` (stereo not shown) [MCB-613], the “Tlr7 and Lcn2 mRNA expression in granulocytes” value with bone marrow granulocytes was “Increased expression of Tlr7 and Lcn2”. In test [1] (10 weeks post-MI), the endothelial cell growth result was “stimulates endothelial cell growth of two distinct endothelial cell populations”. Moreover, in test [1] (12 weeks post-MI), the “changes in non-cardiomyocyte cell number” value was “macrophage cluster 1 and B lymphocytes decreased in number while epicardial cells, NK/T lymphocytes, fibroblasts, and endothelial cells, including lymphatic cells, were increased in cell number”; the “granulocyte functions (gene set enrichment)” value is on record as “suppresses inflammatory granulocyte functions”.
